# Measured values reported in article PMC5400620, “Preclinical therapeutic efficacy of a novel blood-brain barrier-penetrant dual PI3K/mTOR inhibitor with preferential response in PI3K/PTEN mutant glioma” (Oncotarget, 2017).
# Like-named read-outs stand apart in the source and are kept apart here.
# How the values were obtained:
# [1] = tested on: glioma cell lines and GICs; test: CellTiter-Blue cell viability assay, 72 hours; assay type: cell-based; conditions: Homo sapiens
# Procedure: To determine the cytotoxicity of DS in GBM cells and GICs in vitro, we used a colorimetric […] assay. […] To investigate the role of PI3K/PTEN, we expressed PTEN in PTEN-mutant U87 glioma cells.
# A panel of GIC lines was treated with various concentrations of DS. Cells were treated with increasing concentrations of DS in triplicate wells for 72 hours, and cell viability was assessed by a CellTiter-Blue assay. The results shown are from a single experiment with three independent replicates. The graph depicts cell viability at 72 hours. Cell viability in the vehicle control was considered to be 100%.
# Nine well characterized GBM cell lines and 22 patient-derived GIC lines (provided by Drs. Frederick. F. Lang and Erik. P. Sulman, Brain Tumor center, M. D. Anderson Cancer Center) with various P53, PIK3CA, and PTEN statuses were used for this study. GBM cells were maintained as monolayer cultures and GICs were cultured as GBM neurospheres in DMEM/F12 medium containing B27 supplement (Invitrogen, Grand Island, NY) and basic fibroblast growth factor, and epidermal growth factor (20 ng/ml each).
# The antiproliferative effect of DS on cells growing in culture was determined using the CellTiter-Blue (Promega, Madison, WI) viability assay. […]
# [2] = tested on: GSC11 GICs; test: GSC11 orthotopic intracranial xenograft efficacy; assay type: in vivo, nude mice; conditions: GSC11 tumor-bearing mice, 6 mg/kg oral; control 47 days; P=0.014
# Source text: Figure 4 DS7423 suppressed tumor growth and prolonged survival in an orthotopic mouse xenograft model U87 glioma cells U87 and GSC11 GICs were used to generate orthotopic xenografts in mouse brains. Tumor-bearing mice received either vehicle or DS7423 at the indicated dose/schedules. Two mice were killed at the indicated time points (2 weeks and 4 weeks) after DS treatment. A. and B. Kaplan–Meier survival plots of tumor-bearing mice in vehicle or DS7423 treatment groups (n = 10). The log-rank method was used to test for a difference between groups. […] Bar, 100 μm.
# 6 to 8-week-old male nude mice were obtained from the MD Anderson breeding facility and used in accordance with the Animal Care and Use Guidelines of MD Anderson Cancer Center. In this study, 5 × 10^5 U87 (PTEN mutant) cells in DMEM/F12 serum-free media (5 μL) and GSC11 (PIK3CA mutant and PTEN mutant) were implanted intracranially into each mouse using a guide-screw system, as described previously. Four days after injection of the tumor cells, mice were randomized into 2 groups (10 animals per group). Mice in-group 1 was given 6 mg/kg DS7423 via oral gavage, and mice in-group 2 were given the vehicle (0.5% methyl cellulose) used for administration of DS (control). […] Mice were monitored daily and euthanized when they became moribund. […]
# [3] = pharmacokinetic study in mice, plasma and brain concentrations by LC-MS/MS; assay type: in vivo, nude mice
# Procedure: We studied the plasma concentration-time profile of DS following a single PO administration (6 mg/kg) in mice (Figure 1). Plasma concentrations remained generally constant and higher than 2 μmol/L up to 6 hours after treatment. The brain-to-plasma ratio of total concentrations remained unchanged and was approximately 0.1 between 1 and 6 hours after treatment (Figure 1A and 1B). Both plasma and brain DS concentrations decreased at 24 hours after treatment.
# Figure 1 A. and B. Plasma and brain concentration-time profile of DS7423 following a single PO administration (6 mg/kg) to nude mice. C. Western blot of mouse brains probed with antibodies against pAkt (Ser473) and pS6 (Ser235/236) in a time profile similar to that shown in A and B. Results are presented as the mean ± SE of six animals in each group.
# Mice were implanted with U87 cells intracranially as described previously. Twenty-one days after injection of the tumor cells,mice were randomized into groups. Mice were given a 6 mg/kg oral (PO) dose of DS. Blood samples of approximately 0.15 mL were collected from mice (n = 4 mice per time point) by retro-orbital bleeding in tubes containing K2EDTA as the anticoagulant pre-dose and at 2, 4, 6, and 24 hours post-dose. Plasma was collected and stored at −80°C until analysis. DS concentrations were determined by liquid chromatography-tandem mass spectrometry (LC-MS/MS) following plasma protein precipitation with acetonitrile and injection of the supernatant onto a TSK-GEL ODS-100V column (150 mm × 2 mm, 5 μm particle size). A Shimadzu 10A system (Shimadzu Corp., Kyoto, Japan) coupled with an AB Sciex API4000 triple-quadrupole mass spectrometer (Applied Biosystems, Foster City, CA) was used for the LC-MS/MS assay. […] DS and its internal standard ([^2H8]DS) were analyzed in the multiple reaction monitoring mode using the mass transitions of m/z 521→479 and 529→487, respectively. The lower and upper limits of quantitation were 2 and 5000-ng/mL10 μmol/L, respectively. […] For DS quantitation, mouse brains were homogenized in 3 volumes of 50% acetonitrile. […]
# [4] = tested on: LN229; test: LN229 intracranial model efficacy; assay type: in vivo; conditions: LN229 tumor-bearing mice, PTEN wild type
# Procedure: We studied the efficacy of DS in 2 intracranial tumor models; the U87 glioma cell line and the GSC11 glioma initiating cell line are both PTEN mutant and GSC-11 is PIK3CA mutant cells. The median survival time of the U87 tumor-bearing control mice (i.e., those injected with methylcellulose only) was 30 days, whereas the median survival time of the U87 tumor-bearing mice orally treated with 6 mg/kg of DS was 46 days (Figure 4A; P=0.025). The median survival of the GSC11 tumor-bearing mice orally treated with 6 mg/kg of DS was 61 days (Figure 4B; P=0.014) compared with 47 days for the control-treated mice. The in vivo therapeutic efficacy of DS was assessed by plotting the Kaplan-Meier survival curves of the animals, and group data were compared using the log-rank test (Figure 4A and 4B). […] We also studied LN229 a PTEN wild type cell line to study the efficacy of DS in intracranial model.
compound,measurement,setting,value
"CC(=O)N1CCN(c2nc3c(N4CCOCC4)nc(-c4cnc(N)nc4)nc3n2CC(F)(F)F)C[C@H]1C [DS, 1-{(2R)-4-[2-(2-Aminopyrimidin-5-yl)-6-(morpholin-4-yl)-9-(2,2,2-trifluoroethyl)-9H-purin-8-yl]-2-methylpiperazin-1-yl}ethan-1-one]",IC50,"[1]; Glioma cell, GBM cells and GICs, 72 hours exposure, read-out: half maximal inhibitory concentration range of cells considered sensitive",150 to 265 nM
same,IC50,"[1]; 9 glioma cell lines and 22 GIC lines, 72 hours, read-out: mean 50% inhibitory concentration, growth of glioma tumor cell lines and GICs",< 250 nM
same,median survival,[2],61 days
same,concentration achievable in the mouse brains,[3],200 nM
same,Kp at 6 h,"[3]; nude, mouse, brain and plasma, single PO 6 mg/kg, between 1 and 6 hours after treatment, read-out: brain-to-plasma ratio of total concentrations",~0.1
same,plasma concentration,"[3]; single PO 6 mg/kg, up to 6 hours after treatment",higher than 2 μmol/L
same,effect on median survival,[4],no effect on median survival
